From US12605350B2, “Composition for preventing, ameliorating, or treating disease caused by nitration of tyrosine in proteins comprising tyrosine as effective component” (INDUSTRY-ACADEMIC COOPERATION FOUNDATION GYEONGSANG …, priority 2020, dated 2026)

Tests used:
[1] = system: high-fat diet mouse model of type 2 diabetes; assay: high-fat diet mouse model of type 2 diabetes: bodyweight, food intake amount, blood glucose; format: in vivo; details: HFD+L-Tyr (181 mg of L-tyrosine/kg) compared to HFD, measured every week
Method: Twenty-seven C57BL/6 male mice (3-week old) were acclimated to the breeding condition for 1 week. […] Blood glucose was measured every week.

[2] = system: chronic immobilization stress group (STR); assay: ROS/RNS in plasma and PFC, chronic immobilization stress; format: in vivo, mouse; details: tyrosine diet (181.2 mg/kg) compared to normal diet
Method: Each of the blood and PFC sample was obtained from a mouse anesthetized with CO2 gas. Specifically, mouse blood was collected between 9 AM and 11 AM and stored in a K3EDTA-coated vacuum container. Plasma was obtained by centrifuge for 10 minutes at 4° C., 500×g. PFC sample was weighed first, and, after lysis of the tissues by using Bullet homogenizer, subjected to centrifuge for 20 minutes at 4° C., 12,000 rpm. Thus-obtained plasma and tissue lysate were kept at −80° C. until use. After that, the animal was sacrificed, and a change in corticosterone amount in plasma was examined. ROS/RNS in plasma and PFC was also examined. The corticosterone amount was examined using an ELISA kit (Cayman) by following the manufacturer's protocol, and ROS/RNS was also examined using an ROS/RNS assay kit (Cell Biolabs, San Diego, CA, USA) by following the manufacturer's protocol. The animal models were divided into two groups (i.e., normal group and stress group). The animal of stress group was individually brought by force to a restrainer for 2 hours every day (i.e., between 2 PM and 4 PM) so that it was applied with chronic immobilization stress for 15 days. Change in bodyweight and food intake amount were measured every other day. The normal group and stress group were divided again into a normal diet group and a tyrosine-supplemented diet group (181.2 mg/kg), and then fed.

[3] = system: MnSOD; assay: activity of MnSOD, renal ischemia and reperfusion; format: in vivo, mouse; details: L-tyrosine 100 mg/kg oral for 4 days, IR
Method: C57BL/6 male mouse (23 to 25 g, KOATECH, South Korea) was allowed to have free access to diets and water in sterile breeding room with constant temperature and humidity. The animals were divided into 3 test groups, i.e., 1) Control group (Sham), 2) Renal ischemia having treatment with prepared solvent and induced reperfusion group (CMC+IR), and 3) Renal ischemia having treatment with L-tyrosine and induced reperfusion group (L-Tyr+IR).
L-Tyrosine (100 mg/kg) was suspended in 0.5% CMC (carboxymethyl cellulose). The animal was orally administered, once a day for 4 days, with L-tyrosine or the prepared solvent CMC. Thirty minutes after the oral administration on Day 4, renal ischemia was caused. Specifically, the animal abdomen was cut and renal pedicles at both sides were clamped using a Muller atraumatic vascular clamp to cause renal ischemia. After 25 minutes of blood ischemia, the clamp was removed followed by reperfusion. The control group (Sham) received the same operational procedures as above except the ischemia using clamp. Twenty-four hours after the reperfusion, the test animal was sacrificed, blood was collected from the heart, and the tissues were harvested.

Structure (SMILES) | blood glucose [1] | blood glucose ([1]; listed as L-Tyr) | ROS/RNS in PFC tissues [2] | ROS/RNS in plasma [2] | activity of MnSOD [3]
N[C@@H](Cc1ccc(O)cc1)C(=O)O [L-tyrosine] | statistically significant decrease in blood glucose amount | statistically significant decrease |  |  | 
N[C@@H](Cc1ccc(O)cc1)C(=O)O [tyrosine] |  |  | statistically significant decrease in ROS/RNS | statistically significant decrease in ROS/RNS | again recovered
